The results in this text go back to ChEMBL document CHEMBL4257491, “Discovery of indoleamine 2,3-dioxygenase inhibitors using machine learning based virtual screening” (Medchemcomm, 2018).

Molecules are shown by their SMILES. Calls of active or inactive are those of the source. The calls are words filed in the database; no cut-off is given here.

As usually defined, the inhibition is how much of the control response was suppressed. Read a low inhibition as a response near the control. For orientation: IC50 means the concentration needed to halve the response being measured.

Data set [1] has as its target T1, Indoleamine 2,3-dioxygenase 1 (Homo sapiens, UniProt P14902). The data set is described as follows: Inhibition of IDO1 in IFNgamma-stimulated human HuH7 cells at 10 uM using L-tryptophan as substrate measured after 24 hrs relative to control.
Target sequence in this assay (P14902 whole entry, looked up): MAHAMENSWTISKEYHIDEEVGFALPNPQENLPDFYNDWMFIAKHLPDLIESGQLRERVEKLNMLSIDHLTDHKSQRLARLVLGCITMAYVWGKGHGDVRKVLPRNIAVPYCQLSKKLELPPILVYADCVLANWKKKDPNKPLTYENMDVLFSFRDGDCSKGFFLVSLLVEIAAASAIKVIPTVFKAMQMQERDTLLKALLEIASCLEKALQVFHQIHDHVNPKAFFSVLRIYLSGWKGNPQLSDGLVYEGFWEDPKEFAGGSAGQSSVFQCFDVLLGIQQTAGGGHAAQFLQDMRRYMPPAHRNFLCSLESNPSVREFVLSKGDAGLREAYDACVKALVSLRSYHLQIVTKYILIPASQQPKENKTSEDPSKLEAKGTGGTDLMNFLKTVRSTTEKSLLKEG
Data set [2] can be described thus: Cytotoxicity against human HuH7 cells assessed as survival rate at 10 uM after 24 hrs by MTT assay relative to control. The following applies: read-out: Survival. The data set is classed as cell-based, Huh-7.
The target in data set [3] is T1, Indoleamine 2,3-dioxygenase 1. The data set is described as follows: Binding affinity to human HuH7 cell derived IDO1 expressed in Escherichia coli BL21 codon plus up to 10 uM by surface plasmon resonance analysis.
Target sequence in this assay (P14902 whole entry, looked up): as above
Data set [4] has the same target. The experiment in a line: Inhibition of human HuH7 cell derived IDO1 expressed in Escherichia coli BL21 codon plus using L-tryptophan as substrate measured after 1 hr by fluorescence assay.
Target sequence in this assay (P14902 whole entry): as the sequence (P14902 whole entry, looked up) above
For data set [5] the target is unchanged. The experiment in a line: Inhibition of IDO1 in IFNgamma-stimulated human HuH7 cells at 1 uM using L-tryptophan as substrate measured after 24 hrs relative to control.
Target sequence in this assay (P14902 whole entry, looked up): as above
Data set [6] is described as follows: Cytotoxicity against human HuH7 cells assessed as survival rate at 1 uM after 24 hrs by MTT assay relative to control. In kind it is cell-based, Huh-7. The following applies: read-out: Survival. (Tetrazolium assays rely on reduction of a dye to a coloured formazan, in cell work by metabolically active cells.)

The molecule `Cc1c(-c2c(C)c(O)c3ccccc3c2O)oc2c1C(=O)C(=O)c1c-2ccc2c1CCCC2(C)C` had an inhibition in data set [1] of 21%. Moreover, in data set [2], the viability at 24 h, 10 µM came out at 97.1%. Further, the result in data set [3] was Active. The IC50 in data set [4] is 4.1 µM.

Turning to `Cc1cccc2c3c(ccc12)C1=C(C(=O)C3=O)C(C)CO1` (configuration not stated), the result in data set [3] was Active. Further, the inhibition in data set [5] was found to be 54.3%. Besides, in data set [6], the viability at 24 h, 1 µM stood at 94.7%. The IC50 in data set [4] worked out at 1.3 µM.

As for `Cc1coc2c1C(=O)C(=O)c1c-2ccc2c1C=CCC2(C)C`, the result in data set [3] was Active. This molecule also showed an inhibition in data set [5] of 66.7%. In addition, in data set [6], the viability at 24 h, 1 µM came out at 93%. In data set [4], the IC50 was 4.68 µM.
